In US4801610A, “Phenolic ester derivatives as elastase inhibitors” (G. D. Searle & Co., priority 1987, dated 1989) one finds IC50 data, which are given here for 16 compounds.

The target in the assay is T1, Human Leukocyte Elastase (HLE) (Homo sapiens, UniProt P08246).
T1 sequence (P08246 30-247 limits assumed): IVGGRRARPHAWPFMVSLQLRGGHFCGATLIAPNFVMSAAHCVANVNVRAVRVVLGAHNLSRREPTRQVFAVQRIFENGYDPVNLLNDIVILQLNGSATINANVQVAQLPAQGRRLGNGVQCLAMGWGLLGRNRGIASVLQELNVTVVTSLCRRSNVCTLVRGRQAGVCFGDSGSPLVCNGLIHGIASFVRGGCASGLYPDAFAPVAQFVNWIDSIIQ
Nature of the assay: Inhibition of Human Leukocyte Elastase (HLE), hydrolysis of Methoxysuccinyl-Ala-Ala-Pro-Val-nitroanilide. The class given is biochemical. As to conditions: tris-HCl buffer pH 8.0, absorption at 410 nm, read-out: Inhibition of Elastase IC50, [Molar]. How it is done: Several biochemical and animal model tests can be used to examine the ability of the derivatives of the invention to prevent or alleviate the harmful biological action of elastase. The biochemical assays permit direct measurement of drug controlled inhibition of elastase fragmentation of proteins. […] In these tests, protease reaction with the substrate is measured in the presence and absence of the drug to be tested. Inhibition of protease action is indicated by a decrease in the amount of substrated fragmented. The basic parameters for such biochemical assays have been reported in the literature: J. Biol. Chem., 255, 5435 (1980); Biochem. Biophys Acta., 268, 257 (1973); Anal. Biochem. 48,9 (1972); and Biochemistry, 20, 3675 (1981). EXAMPLE 42 Inhibition of Human Leukocyte Elastase (HLE) This test measures the rate of hydrolysis of Methoxysuccinyl-[…]-nitroanilide by HLE in the presence and absence of the compound to be tested. The procedure used is as follows. […] The test hydrolysis solution was then prepared by adding 850 microliters buffer, 50 microliters derivative solution, 50 microliters peptide solution and 50 microliters of HLE solution to a 1 cm. semi-micro cuvette. The cuvette was capped, slightly shaken and placed in the light chamber of a recording colorimeter where the increase in absorption at 410 nm. due to liberated nitroaniline was measured. Using this procedure, the one minute change in absorption of the test sample containing derivative was compared to the change in absorption in the absence of derivative. A 20% or more decrease in the rate of absorption was interpreted as a positive inhibition.

The structures appear in SMILES notation.

For the compound `CC(C)C(=O)Oc1ccc(C(=O)c2ccccc2)cc1` [Example 34, 4-isobutyryloxybenzophenone], the IC50 came out at 250 nM.
Then `C=CC(C)c1cc(C(=O)c2ccccc2)ccc1OC(=O)C(C)(C)C` (stereo not shown) [Example 27, 3-(1-methyl-allyl)-4-pivaloyloxybenzophenone], with 320 nM.
With `C=C(C)Cc1cc(C(=O)c2ccccc2)ccc1OC(=O)C(C)(C)C` [Example 25, 3-methallyl-4-pivaloyloxybenzophenone], the IC50 is 85 nM.
As to `CC(C)(C)C(=O)Oc1ccc(C(=O)c2ccccc2)cc1` [Example 1, 4-pivaloyloxybenzophenone], the concentration for half-maximal inhibition (IC50) was 620 nM.
Then `CC(C)(C)C(=O)Oc1ccc(Oc2ccc(OC(=O)C(C)(C)C)cc2)cc1` [Example 16, 4,4'-dipivaloyloxydiphenylether], with 460 nM; and `CC(C)(C)C(=O)Oc1ccc(C(=O)c2ccc(Cl)cc2)cc1` [Example 6, 4-pivaloyloxy-4'-chlorobenzophenone], with 290 nM; and `CCCC(C)(C)C(=O)Oc1ccc(C(=O)c2ccc(OC(=O)C(C)(C)CCC)cc2)cc1` [Example 7, 4,4'-α,α-dimethylvaleroyloxybenzophenone], with 670 nM.
With `CC(C)(C)OC(=O)Oc1ccc(C(=O)c2ccc(OC(=O)OC(C)(C)C)cc2)cc1` [Example 14, 4,4'-di(t-butyloxycarbonyloxy)benzophenone], the 50% inhibitory concentration (IC50) is 900 nM.
Take `CC(C)(C)C(=O)Oc1ccc(C(=O)c2ccccc2)cc1CCCO` [Example 29, 3-(3-hydroxyoropyl)-4-pivaloyloxybenzophenone]: the IC50 amounted to 350 nM.
As for `C=CCc1cc(C(=O)c2ccccc2)ccc1OC(=O)C(C)(C)C` [Example 26, 3-allyl-4-pivaloyloxybenzophenone], the figure is 800 nM.
As for `CC(C)(C)C(=O)Oc1cc(C(=O)c2ccc(OC(=O)C(C)(C)C)c(OC(=O)C(C)(C)C)c2OC(=O)C(C)(C)C)cc(OC(=O)C(C)(C)C)c1OC(=O)C(C)(C)C` [Example 9, 3,4,5,4',5',6',-hexapivaloyloxybenzophenone], the figure is 360 nM; as for `CC(C)(C)C(=O)Oc1ccc(C(=O)c2ccccc2)c(OC(=O)C(C)(C)C)c1` [Example 13, 2,4-dipivaloyloxybenzophenone], 84 nM; as for `CC(C)(C)C(=O)Oc1ccc(Cc2ccc(OC(=O)C(C)(C)C)cc2)cc1` [Example 39, 4,4'-dipivaloyloxydiphenylmethane], 450 nM.
Regarding `CC(C)(C)C(=O)Oc1ccc(C(=O)c2ccc(OC(=O)C(C)(C)C)cc2)cc1` [Example 1a, 4,4'-dipivaloyloxybenzophenone], the 50% inhibitory concentration (IC50) is 60 nM.
As for `CC(C)C(=O)Oc1ccc(C(=O)c2ccc(OC(=O)C(C)C)cc2)cc1` [Example 40, 4,4'-diisobutyryloxybenzophenone], the figure is 150 nM; as for `CC(C)(C)C(=O)Oc1ccc(C(=O)c2ccc(OC(=O)C(C)(C)C)cc2OC(=O)C(C)(C)C)cc1` [Example 2, 2,4,4'-tripivaloyloxybenzophenone], 55 nM.

By IC50 is commonly meant the concentration that gives 50% inhibition.
